Assays:
[1] = Acute toxicity, intravenous, male mice; details: mouse, in vivo, read-out: LD50 (median lethal dose)
From the text: The acute toxicity of the compounds of the invention administered intravenously was studied in male mice.

guinea-pigs = experiment: Gastric emptying measured by x-ray localization of barium sulfate spheroids in guinea pigs after i.p. administration; type: in vivo, guinea pig; details: for Gastric emptying (percentage of spheroids leaving the stomach) after 1 hour / Gastric emptying (percentage of spheroids leaving the stomach) after 2 hours: 1 mg/kg i.p.; for Gastric emptying (percentage of spheroids leaving the stomach) after 1 hour / Gastric emptying (percentage of spheroids leaving the stomach) after 2 hours / Gastric emptying after 2 hours: guinea-pigs; for Gastric emptying (percentage of spheroids leaving the stomach) after 2 hours: control group 28%; for Gastric emptying at 1 mg/kg compared with metoclopramide 5 mg/kg: 1 mg/kg of compound vs 5 mg/kg of metoclopramide; for Gastric emptying after 2 hours: 5 mg/kg, control group 24.8%
Experimental: Feeding of the animals were interrupted 14 hours before measurement of gastric emptying. The experimentation was conducted under weak illumination, with the least possible noise and disturbances, solely by experimentors having daily contact with the guinea pigs and having sufficient initial training in handling the animals. The animals were then subjected to minimal stress.
The measurement of gastric emptying was carried out by x-ray localization (50 KV, 30 mA, 0.5-0.8 s.), on Kodak plates (NS-2T, 13×18 cm) of barium sulfate spheroids (approximately 30, 1 mm in diameter) coated with polystyrene, which the guinea pigs were made to swallow by placing them in the back of the throat, in a solution of 0.2 ml of 1% carboxymethylcellulose with 0.05 ml of glycerine, so as to initiate rapid and voluntary deglutition.
The passage of the spheroids was followed for 3 to 4 hours, the animals being placed in their customary cages for that time and taken out only 5 minutes before x-ray exposure (at intervals of 30-60 minutes). During the x-ray procedure, the animals were placed in individual holding cages, keeping them comfortably in a stable position, the cage being sufficiently sized (33×15 cm and 13 cm high) so as to comfortably maintain a 450 to 550 gram guinea pig between the padded walls, the animal being trained to enter the cage and remain there tranquilly and without stress.
Gastric emptying was measured by the number of spheroids leaving the stomach. For each dose of product studied, 6 guinea pigs were used, and the responses were compared to those of guinea pigs receiving the appropriate vehicle.
Compound (I) was studied at doses of 1 mg/kg and 0.01 mg/kg, Compounds (II) to (V) were studied at a dose of 1 mg/kg, the compounds (VI) to (VIII) at a dose of 5 mg/kg. Metoclopramide was evaluated at doses of 1 mg/kg and 5 mg/kg.
The results are recorded in graphic form in FIG. 1. The compounds according to the invention and metoclopromide were dissolved in distilled water and the doses are expressed as base.
This emptying is expressed, in FIG. 1 and Table 1, as a percentage of spheroids leaving the stomach.

Compound	LD50 [1]	Gastric emptying (percentage of spheroids leaving the stomach) after 1 hour (guinea-pigs)	Gastric emptying (percentage of spheroids leaving the stomach) after 2 hours (guinea-pigs)	Gastric emptying at 1 mg/kg compared with metoclopramide 5 mg/kg (guinea-pigs)	Gastric emptying after 2 hours (guinea-pigs)	Effect on gastric emptying (in words) (guinea-pigs; intraperitoneal, immobilized guinea-pigs, FIG. 1)
CCN(CC)CCNC(=O)c1cc(Cl)c(NC2=NCCN2)cc1OC [Compound I, N-[2-(diethylamino)ethyl]-2-methoxy-4-[(4,5-dihydro-1H-imidazol-2-yl)-amino]-5-chlorobenzamide]	12.8 to 14.4 mg/kg	24%	63%	a result equivalent to the use of 5 mg/kg of metoclopramide	–	–
CCN(CC)CCNC(=O)c1cc(Cl)c(NC2=NCCS2)cc1OC [Compound II, N-[2-(diethylamino)ethyl]-2-methoxy-4-[(4,5-dihydro-2-thiazolyl)amino]-5-chlorobenzamide]	40.6 to 48.7 mg/kg	12.5%	60%	–	–	–
CCN(CC)CCNC(=O)c1cc(Cl)c(NC2=NCCO2)cc1OC [Compound III, N-[2-(diethylamino)ethyl]-2-methoxy-4-[(4,5-dihydro-2-oxazolyl)amino]-5-chlorobenzamide]	91 to 116 mg/kg	20%	57%	–	–	–
CNC(=O)c1cc(Cl)c(NC2=NCCN2)cc1OC [Compound IV, N-methyl-2-methoxy-4-[(4,5-dihydro-1H-imidazol-2-yl)amino] -5-chlorobenzamide]	95.8 to 138 mg/kg	38%	62%	a result equivalent to the use of 5 mg/kg of metoclopramide	–	–
CCN(CC)CCNC(=O)c1cc(Cl)c(NC2=NCCN2)cc1O [Compound V, N-[2-(diethylamino)ethyl]-2-hydroxy-4-[(4,5-dihydro-1H-imidazol-2-yl)-amino]-5-chlorobenzamide]	65.7 to 76.7 mg/kg	32%	55%	–	–	–
COc1cc(NC2=NCCN2)c(Cl)cc1C(=O)NC(C)C [Compound VII, N-isopropyl-2-methoxy-4-[(4,5-dihydro-1H-imidazol-2-yl)amino]-5-chlorobenzamide]	–	–	–	–	46.2%	–
C=CCNC(=O)c1cc(Cl)c(NC2=NCCN2)cc1OC [Compound VIII, N-allyl-2-methoxy-4-[(4,5-dihydro-1H-imidazol-2-yl)amino]-5-chlorobenzamide]	–	–	–	–	47.4%	–
CCN(CC)CCNC(=O)c1cc(Cl)c(N)cc1OC [metoclopramide, N-(2-diethylaminoethyl)-2-methoxy-4-amino-5-chlorobenzamide, reference compound]	25.4 to 37.9 mg/kg	16%	39%	–	–	an increase in gastric emptying
